Measurements from PubChem BioAssay AID248 (DTP/NCI, 2004).
Several values for one entry are separate records, joined by “and”; a condition that tells them apart may be missing. Equal values may be shown once. Toxic doses and inconclusive results are not listed.

Test system: L1210 leukemia ip in BDF1 mice, survival T/C
Experiment: NCI In Vivo Anticancer Drug Screen. Data for tumor model L1210 Leukemia (intraperitoneal) in B6D2F1 (BDF1) mice
Conditions: endpoint: mean survival time, higher = longer survival
Procedure, shortened: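 Tumor cells were implanted, animals were treated, and survival was followed. The result divides the treated measurement by the vehicle-control measurement.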

[1] = dose: 100.0 mg/kg/injection, schedule: Q01DX009 (ip), vehicle: Klucel (hydroxypropylcellulose) (HPC)
[2] = dose: 100.0 mg/kg/injection, schedule: Q04DX003 (ip), vehicle: Klucel (hydroxypropylcellulose) (HPC)
[3] = dose: 200.0 mg/kg/injection, schedule: Q01DX009 (ip), vehicle: Klucel (hydroxypropylcellulose) (HPC)
[4] = dose: 200.0 mg/kg/injection, schedule: Q04DX003 (ip), vehicle: Klucel (hydroxypropylcellulose) (HPC)
[5] = dose: 400.0 mg/kg/injection, schedule: Q04DX003 (ip), vehicle: Klucel (hydroxypropylcellulose) (HPC)
[6] = dose: 100.0 mg/kg/injection, schedule: Q01DX009 (ip), vehicle: saline with Tween-80
[7] = dose: 200.0 mg/kg/injection, schedule: Q01DX009 (ip), vehicle: saline with Tween-80
[8] = dose: 400.0 mg/kg/injection, schedule: Q01DX009 (ip), vehicle: saline with Tween-80
[9] = dose: 50.0 mg/kg/injection, schedule: Q01DX009 (ip), vehicle: saline
[10] = dose: 100.0 mg/kg/injection, schedule: Q04DX003 (ip), vehicle: saline with Tween-80
[11] = dose: 200.0 mg/kg/injection, schedule: Q04DX003 (ip), vehicle: saline with Tween-80
[12] = dose: 400.0 mg/kg/injection, schedule: Q04DX003 (ip), vehicle: saline with Tween-80
[13] = dose: 100.0 mg/kg/injection, schedule: Q01DX001 (ip), vehicle: Klucel (hydroxypropylcellulose) (HPC)
[14] = dose: 200.0 mg/kg/injection, schedule: Q01DX001 (ip), vehicle: Klucel (hydroxypropylcellulose) (HPC)
[15] = dose: 400.0 mg/kg/injection, schedule: Q01DX001 (ip), vehicle: Klucel (hydroxypropylcellulose) (HPC)
[16] = dose: 400.0 mg/kg/injection, schedule: Q01DX009 (ip), vehicle: Klucel (hydroxypropylcellulose) (HPC)
[17] = dose: 100.0 mg/kg/injection, schedule: Q01DX001 (ip), vehicle: saline
[18] = dose: 200.0 mg/kg/injection, schedule: Q01DX001 (ip), vehicle: saline
[19] = dose: 400.0 mg/kg/injection, schedule: Q01DX001 (ip), vehicle: saline
[20] = dose: 100.0 mg/kg/injection, schedule: Q04DX002 (ip), vehicle: Klucel (hydroxypropylcellulose) (HPC)
[21] = dose: 200.0 mg/kg/injection, schedule: Q04DX002 (ip), vehicle: Klucel (hydroxypropylcellulose) (HPC)
[22] = dose: 400.0 mg/kg/injection, schedule: Q04DX002 (ip), vehicle: Klucel (hydroxypropylcellulose) (HPC)
[23] = dose: 200.0 mg/kg/injection, schedule: Q04DX003 (ip), vehicle: saline
[24] = dose: 50.0 mg/kg/injection, schedule: Q01DX001 (ip), vehicle: saline

O=[N+]([O-])c1cc2c(cc1Br)nc(Cl)c1cc(Br)ccc12
T/C [1]: 89 % of control
T/C [2]: 104 % of control
T/C [3]: 91 % of control
T/C [4]: 100 % of control
T/C [5]: 96 % of control

Cc1ccc(-n2c(O)c(C=N)c(=O)n(-c3ccc(C)cc3)c2=O)cc1
T/C [6]: 98 % of control
T/C [7]: 98 % of control
T/C [8]: 95 % of control

CCOC(=O)c1ccc(C(=O)OCC)nc1
T/C (dose: 12.5 mg/kg/injection, schedule: Q01DX009 (ip), vehicle: saline): 109 % of control
T/C (dose: 25.0 mg/kg/injection, schedule: Q01DX009 (ip), vehicle: saline): 94 % of control
T/C [9]: 101 % of control
T/C [6]: 87 % of control
T/C [10]: 101 % of control
T/C [11]: 106 % of control
T/C [12]: 103 % of control

CC(=O)OC1OC(COC(=O)c2ccccc2)C(OC(=O)c2ccccc2)C1OC(=O)c1ccccc1 (stereo not given)
T/C [13]: 118 % of control and 95 % of control
T/C [1]: 92 % of control
T/C [14]: 97 % of control and 92 % of control
T/C [15]: 101 % of control and 92 % of control
T/C [16]: 92 % of control

CCOC(=O)NN(C(=O)OCC)c1c(N(C)NC(C)=O)nc(N)[nH]c1=O
T/C [17]: 96 % of control
T/C [18]: 86 % of control
T/C [19]: 96 % of control

Cc1cccc2c1C(=O)OC2(CC(=O)O)c1ccccc1 (stereo not given)
T/C (dose: 37.5 mg/kg/injection, schedule: Q04DX002 (ip), vehicle: saline with Tween-80): 101 % of control
T/C (dose: 75.0 mg/kg/injection, schedule: Q04DX002 (ip), vehicle: saline with Tween-80): 101 % of control
T/C (dose: 150.0 mg/kg/injection, schedule: Q04DX002 (ip), vehicle: saline with Tween-80): 101 % of control

N#C/C(=C\C1CCCC([N+](=O)[O-])C1)C1CCC([N+](=O)[O-])CC1 (stereo not given)
T/C [20]: 122 % of control
T/C [21]: 100 % of control
T/C [22]: 100 % of control

O=[N+]([O-])c1ccc(-c2ccc([N+](=O)[O-])cc2)cc1
T/C [20]: 98 % of control
T/C [21]: 124 % of control
T/C [22]: 95 % of control

Nc1cc(Cl)cc(Cl)c1C(=O)O
T/C (dose: 50.0 mg/kg/injection, schedule: Q01DX009 (ip), vehicle: other): 100 % of control
T/C (dose: 100.0 mg/kg/injection, schedule: Q01DX009 (ip), vehicle: other): 94 % of control
T/C (dose: 100.0 mg/kg/injection, schedule: Q04DX003 (ip), vehicle: saline): 90 % of control
T/C [23]: 90 % of control

O=C(O)C1CCC1(C(=O)O)C(=O)O (stereo not given)
T/C (dose: 100.0 mg/kg/injection, schedule: Q04DX002 (ip), vehicle: saline): 94 % of control
T/C (dose: 200.0 mg/kg/injection, schedule: Q04DX002 (ip), vehicle: saline): 90 % of control
T/C (dose: 400.0 mg/kg/injection, schedule: Q04DX002 (ip), vehicle: saline): 94 % of control

[O-]/[N+](=C\c1ccccc1)Cc1ccccc1
T/C (dose: 100.0 mg/kg/injection, schedule: Q04DX003 (ip), vehicle: carboxymethylcellulose (CMC)): 94 % of control
T/C (dose: 200.0 mg/kg/injection, schedule: Q04DX003 (ip), vehicle: carboxymethylcellulose (CMC)): 97 % of control

CCOc1ccc(Br)cc1/C=C1/NC(=O)NC1=O
T/C [6]: 95 % of control
T/C (dose: 100.0 mg/kg/injection, schedule: Q04DX002 (ip), vehicle: saline with Tween-80): 102 % of control
T/C [7]: 101 % of control
T/C (dose: 200.0 mg/kg/injection, schedule: Q04DX002 (ip), vehicle: saline with Tween-80): 97 % of control
T/C [8]: 98 % of control
T/C (dose: 400.0 mg/kg/injection, schedule: Q04DX002 (ip), vehicle: saline with Tween-80): 97 % of control

CC1(CNC(=O)C(=O)NCC2(C)CO2)CO1 (stereo not given)
T/C (dose: 15.0 mg/kg/injection, schedule: Q01DX009 (ip), vehicle: acetone): 98 % of control
T/C (dose: 23.0 mg/kg/injection, schedule: Q01DX009 (ip), vehicle: acetone): 98 % of control
T/C (dose: 25.0 mg/kg/injection, schedule: Q01DX Z (ip), vehicle: saline): 121 % of control
T/C (dose: 40.0 mg/kg/injection, schedule: Q01DX Z (ip), vehicle: other): 120 % of control
T/C [24]: 101 % of control
T/C [9]: 124 % of control
T/C (dose: 50.0 mg/kg/injection, schedule: Q01DX Z (ip), vehicle: saline): 116 % of control
T/C (dose: 50.0 mg/kg/injection, schedule: Q04DX003 (ip), vehicle: saline): 124 % of control
T/C (dose: 100.0 mg/kg/injection, schedule: Q01DX001 (ip), vehicle: acetone): 123 % of control
T/C [17]: 110 % of control and 113 % of control
T/C (dose: 100.0 mg/kg/injection, schedule: Q01DX009 (ip), vehicle: saline): 150 % of control
T/C (dose: 100.0 mg/kg/injection, schedule: Q01DX Z (ip), vehicle: other): 96 % of control
T/C (dose: 132.0 mg/kg/injection, schedule: Q04DX003 (ip), vehicle: saline): 117 % of control
T/C (dose: 150.0 mg/kg/injection, schedule: Q01DX009 (ip), vehicle: saline): 157 % of control and 163 % of control
T/C (dose: 150.0 mg/kg/injection, schedule: Q01DX Z (ip), vehicle: carboxymethylcellulose (CMC)): 121 % of control
T/C (dose: 200.0 mg/kg/injection, schedule: Q01DX001 (ip), vehicle: acetone): 119 % of control
T/C [18]: 120 % of control
T/C [23]: 157 % of control and 166 % of control
T/C (dose: 225.0 mg/kg/injection, schedule: Q01DX009 (ip), vehicle: saline): 180 % of control
T/C (dose: 225.0 mg/kg/injection, schedule: Q01DX Z (ip), vehicle: carboxymethylcellulose (CMC)): 96 % of control
T/C (dose: 300.0 mg/kg/injection, schedule: Q01DX009 (ip), vehicle: saline): 94 % of control
T/C (dose: 300.0 mg/kg/injection, schedule: Q04DX003 (ip), vehicle: saline): 158 % of control and 189 % of control
T/C (dose: 338.0 mg/kg/injection, schedule: Q01DX Z (ip), vehicle: other): 106 % of control
T/C (dose: 400.0 mg/kg/injection, schedule: Q01DX001 (ip), vehicle: acetone): 204 % of control

Cc1cc(C)c(S(=O)(=O)C(=O)C(=O)NN)c(C)c1
T/C [13]: 104 % of control
T/C [2]: 115 % of control
T/C [14]: 106 % of control
T/C [4]: 109 % of control
T/C [15]: 106 % of control
T/C [5]: 104 % of control

CN=C(c1ccc(NC(=O)c2cc(C(=O)Nc3ccc(C(=NC)N(C)C)cc3)cc([N+](=O)[O-])c2)cc1)N(C)C
T/C (dose: 1.88 mg/kg/injection, schedule: Q01DX Z (ip), vehicle: saline): 100 % of control
T/C (dose: 3.75 mg/kg/injection, schedule: Q01DX Z (ip), vehicle: saline): 100 % of control
T/C (dose: 7.5 mg/kg/injection, schedule: Q01DX Z (ip), vehicle: saline): 98 % of control

CCOC(=O)/C=C(\C)C(C)=O
T/C [6]: 92 % of control
T/C [10]: 98 % of control
T/C [7]: 96 % of control
T/C [11]: 103 % of control
T/C [8]: 92 % of control
T/C [12]: 104 % of control

CSc1ccc(C)cc1C
T/C [1]: 105 % of control
T/C [3]: 103 % of control
T/C [16]: 105 % of control

CN(C)C(=O)OCC[N+](C)(C)CCCCCCCCCC[N+](C)(C)CCOC(=O)N(C)C
T/C (dose: 0.63 mg/kg/injection, schedule: Q01DX009 (ip), vehicle: saline): 94 % of control
T/C (dose: 1.25 mg/kg/injection, schedule: Q01DX009 (ip), vehicle: saline): 98 % of control
T/C (dose: 2.5 mg/kg/injection, schedule: Q01DX009 (ip), vehicle: saline): 93 % of control
T/C (dose: 5.0 mg/kg/injection, schedule: Q04DX003 (ip), vehicle: saline): 94 % of control

O=C1c2cc([N+](=O)[O-])ccc2-c2cc(Cl)ccc21
T/C [10]: 97 % of control
T/C [11]: 97 % of control
T/C [12]: 97 % of control

CC(=O)OC1COC(n2cnc3c(=O)[nH]cnc32)C(OC(C)=O)C1OC(C)=O (stereo not given)
T/C [24]: 97 % of control
T/C [17]: 97 % of control and 115 % of control and 101 % of control
T/C [18]: 86 % of control and 109 % of control and 103 % of control
T/C [19]: 95 % of control
